In US20230357275A1, “SPIRO-SULFONAMIDE DERIVATIVES AS INHIBITORS OF MYELOID CELL LEUKEMIA-1 (MCL-1) PROTEIN” (Prelude Therapeutics, Incorporated, priority 2020, published 2023):

Experiments:
H929 cells = test: Cell viability assay (H929 10 FBS); type: cell-based; settings: Homo sapiens, NCI-H929, 24 hours, CellTiTer-Glo or ATPlite, read-out: H929_10FB S IC50
Protocol: Dispense 10 µL aliquot of prepared H929 cells (1:1 ratio of cells:Trypan Blue (#1450013, Bio-Rad)) onto cell counting slide (#145-0011, Bio-Rad) and obtain cell density and cell viability using cell counter (TC20, Bio-Rad). Remove appropriate volume of resuspended cells from culture flask to accommodate 4000 cells/well @ 10 µL/well. Transfer H929 cells to 50 mL conical (#430290, Corning). Spin down at 1000 rpm for 5 min using tabletop centrifuge (SPINCHRON 15, Beckman). Discard supernatant and resuspend cell pellet in modified RPMI 1640 (#10-040-CV, Coming) cell culture media containing 10% FBS (F2422-500 ML, Sigma), sodium pyruvate (100 mM) (#25-000-CL, Corning), HEPES buffer (1 M) (#25-060-CL, Coming) and glucose (200 g/L) (A24940-01, Gibco) to a cell density of 400,000 cells/mL. Dispense 10 µL of resuspended H929 cells per well in 384-well small volume TC treated plate (#784080, Greiner Bio-one) using standard cassette (#50950372, Thermo Scientific) on Multi-drop Combi (#5840310, Thermo Scientific) in laminar flow cabinet. Dispense compounds onto plates using digital liquid dispenser (D300E, Tecan). Incubate plates in humidified tissue culture incubator @ 37° C. for 24 hours. […] Read plates with microplate reader (PheraStar, BMG Labtech) using 384 well luminescence mode.

MCL-1 = biological target: T1, MCL-1 (Homo sapiens, UniProt Q07820); test: Cell free Mcl-1:Bim affinity assay (Mcl-1 Bim), fluorescence polarization competition; type: binding; settings: 15 nM MCL-1, 5 nM FITC-Bim tracer, 1 hour at room temperature; Ki calculated from IC50 by Nikolovska-Coleska's equation; read-out: BIM_ Ki
T1 construct: purchased BPS Bioscience
Protocol: The binding affinity of each compound was measured via a fluorescence polarization competition assay, in which the compound competes for the same binding site with the ligand, and thus leads to a dose-dependent anisotropy reduction. The tracer ligand utilized was a fluorescein isothiocyanate labelled peptide (FITC-[…]) derived from Bim (GenScript).
The assay was carried out in black half-area 96-well NBS plate (Coming), containing 15 nM of MCL-1 (BPS Bioscience), 5 nM of FITC-Bim and 3-fold serial diluted test compounds in a total volume of 50 µL of assay buffer (20 mM HEPES, 50 mM NaCl, 0.002% Tween 20, 1 mM TCEP, and 1% DMSO). The reaction plate was incubated for 1 hour at room temperature. The change of anisotropy is measured with an Envision multimode plate reader (PerkinElmer) at emission wavelength 535 nm. Fluorescence polarization was calculated in mP unit and the percentage inhibition was calculated by % inhibition = 100x(mPDMSO-mP)/(mPDMSO-mPPC), in which mPDMSO is the DMSO control, and mPPC is the positive control. IC50 values were determined from a 10-point dose response curve by fitting the percent inhibition against compound concentration using the GraphPad Prism software. The inhibition constant Ki was subsequently calculated according to the Nikolovska-Coleska’s equation (Anal. Biochem., 2004, 332, 261), […]

T1 sequence (Q07820 whole entry): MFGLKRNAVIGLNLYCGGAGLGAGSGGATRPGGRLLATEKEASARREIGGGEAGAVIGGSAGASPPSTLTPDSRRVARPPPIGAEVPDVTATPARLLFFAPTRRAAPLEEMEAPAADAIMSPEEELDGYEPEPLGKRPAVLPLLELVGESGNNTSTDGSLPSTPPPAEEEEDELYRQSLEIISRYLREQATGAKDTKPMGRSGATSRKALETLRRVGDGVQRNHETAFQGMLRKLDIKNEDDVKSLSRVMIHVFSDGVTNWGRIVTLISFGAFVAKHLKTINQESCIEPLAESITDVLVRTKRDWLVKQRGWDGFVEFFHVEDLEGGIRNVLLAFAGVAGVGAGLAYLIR

Q: What does the source list for `CN(C)C(=O)O[C@H]1/C=C/COC(C)(C)C(=O)NS(=O)(=O)c2ccc3c(c2)N(C[C@@H]2CC[C@H]21)C[C@@]1(CCCc2cc(Cl)ccc21)CO3` [Example 34, [(3R,6R,7S,8E,22S)-6′-Chloro-12,12-dimethyl-13,15,15-trioxo-spiro [11,20-dioxa-15-thia-1,14-diazatetracyclo[14.7.2.03,6.019,24]pentacosa-8,16,18,24-tetraene-22,1′-tetralin]-7-yl] N,N-dimethylcarbamate]?
A: IC50 (H929 cells): < 500 nM; Ki (MCL-1): < 1 nM
